Assay results: patent US9351998B2, “Methods of nourishing animals” (MariCal, Inc., priority 2008, dated 2016)
“Also recorded” adds a separate entry of the source.

Target: T1, mammalian CaSR (Homo sapiens, UniProt P41180)
T1 construct: expressed in transfected cells; host or cells: HEK cells stably expressing the mammalian CaSR
T1 sequence (P41180 20-1078): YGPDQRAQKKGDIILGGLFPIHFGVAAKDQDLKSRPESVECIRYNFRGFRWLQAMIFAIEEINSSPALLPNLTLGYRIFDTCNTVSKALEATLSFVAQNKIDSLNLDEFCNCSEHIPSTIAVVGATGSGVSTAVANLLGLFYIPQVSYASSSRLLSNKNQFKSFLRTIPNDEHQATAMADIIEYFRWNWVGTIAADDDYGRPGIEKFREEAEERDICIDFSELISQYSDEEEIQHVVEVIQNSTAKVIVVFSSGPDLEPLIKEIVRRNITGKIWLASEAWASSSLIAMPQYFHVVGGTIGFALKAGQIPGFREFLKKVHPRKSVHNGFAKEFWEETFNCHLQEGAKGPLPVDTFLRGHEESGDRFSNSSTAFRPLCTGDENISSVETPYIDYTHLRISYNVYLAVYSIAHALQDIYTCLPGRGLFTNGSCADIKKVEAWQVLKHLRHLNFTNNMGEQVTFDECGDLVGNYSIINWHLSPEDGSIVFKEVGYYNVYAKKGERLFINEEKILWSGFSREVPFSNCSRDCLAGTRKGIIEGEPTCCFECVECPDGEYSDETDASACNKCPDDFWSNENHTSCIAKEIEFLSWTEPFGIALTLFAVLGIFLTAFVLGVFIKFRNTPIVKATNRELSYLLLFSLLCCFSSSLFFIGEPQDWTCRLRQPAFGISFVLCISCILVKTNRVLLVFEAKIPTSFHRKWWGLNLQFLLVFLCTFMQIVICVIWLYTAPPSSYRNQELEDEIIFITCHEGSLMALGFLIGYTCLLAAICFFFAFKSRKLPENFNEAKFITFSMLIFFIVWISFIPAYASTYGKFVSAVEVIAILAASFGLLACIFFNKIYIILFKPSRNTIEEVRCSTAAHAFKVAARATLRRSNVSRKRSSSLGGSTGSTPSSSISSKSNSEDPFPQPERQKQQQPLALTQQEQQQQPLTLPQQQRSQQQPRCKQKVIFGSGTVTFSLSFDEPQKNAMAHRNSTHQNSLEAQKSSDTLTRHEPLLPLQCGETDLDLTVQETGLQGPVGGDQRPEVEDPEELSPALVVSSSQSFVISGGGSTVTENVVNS
Experiment: FURA2 ratio imaging fluorimetry of HEK cells stably expressing mammalian CaSR
Type: cell-based
Description: All methods and equipment utilized to perform experiments on HEK cells have been reported previously (Gama, L. and Breitwieser, G. E. 1998. A carboxyl-terminal domain controls the cooperativity for extracellular Ca2+ activation of the human calcium sensing receptor. A study with receptor-green fluorescent protein fusions. J. Biol. Chem. 273, 29712-29718; Bai, M., Quinn, S., Trivedi, S., Kifor, 0., Pearce, S. H., Pollak, M. R., Krapcho, K., Hebert, S. C. and Brown, E. M. 1996. Expression and characterization of inactivating and activating mutations in the human Ca2+o-sensing receptor. J. Biol. Chem. 271, 19537-19544). Untransfected HEK cells or, alternatively, cells transfected and expressing CaSR protein were cultured in Dulbecco's Modified Eagle Medium containing 10% fetal bovine serum and 1% penicillin-streptomycin in 75 cm^2 flasks until they reached confluence. Media was removed from the flasks and cells were loaded by exposure to Loading Buffer (125 mM NaCl, 4 mM KCl, 1.0 mMCaCl2, 1.0 mM MgCl2, 1 mM NaH2PO4, 20 mM HEPES, 1 gm/liter bovine serum albumin, and 1 gm/l glucose, pH ˜7.4, osmolality ˜285) containing 4.1 micromolar FURA2-AM (Molecular Probes Inc. Eugene, Oreg.) for 2 hr. Cells were then scraped from the surface of the flask using a standard cell scraper (Costar 3010, Corning Inc.). Cells were then pelleted from the suspension by low speed centrifugation to remove loading buffer and rinsed twice to remove extracellular FURA2 dye by two sequential suspensions and pelleting steps using low speed centrifugation. Immediately prior to the start of the experiment, cells were resuspended in various experimental buffers for analyses as described below. The Standard Experimental Buffer used for many studies was composed of: 125 mM NaCl, 4 mM KCl, 0.5 mMCaCl2, 0.5 mM MgCl2, 20 mM HEPES, 1 g/l glucose, pH ˜7.4, osmolality ˜285. All other buffers were variations on this basic composition where specific components within the Standard Experimental Buffer were varied while the remaining components were held constant.
Cell suspensions consisting of a total volume of 3 ml were analyzed in a PTI fluorimeter (PTI Model 814 Photomultiplier Detection System equipped with SC-500 Shutter Controller and PTI Driver and Analysis Software) within approximately 20 min after exposure to experimental buffers. Data was acquired using standard ratio image analysis as described previously using a data acquisition rate of 1.3 sec. for 500 or 1000 second intervals.
In selected experiments, the detergent Triton X-100 was added in order to lyse the cells and quantify differences in FURA2 ratio fluorescence. Triton X-100 was added to the cells to obtain a maximal fluorescence signal from the FURA2 for purposes of quantification.
Experiments on HEK cells were performed generally as described in Example 6 herein. […] Subsequent addition of Ca2+ to a final concentration of 5 mM produced an additional response (see FIG. 26A). No response was observed upon addition of 0.025% Mintrex Zn after the addition of experimental buffer (EB) (see FIG. 26B). […] In addition, the magnitude of the CaSR response to 5 mM Ca2+ was diminished by previous addition of Mintrex Zn.
For mammalian CaSR experiments, two individual aliquots from a single pool of HEK cells that stably express the recombinant mammalian CaSR protein were used for ratio imaging fluorimetry assays of CaSR activation generally as described in Example 6 herein. Addition of Ca++ to a final concentration of 2.5 mM produced a CaSR response that was also followed by responses after subsequent additions of 0.025% Zn proteinate followed by Ca++ to a final concentration of 7.5 mM (FIG. 29B). […] There was also a response to a subsequent dose of Ca++ to a final concentration of 7.5 mM (FIG. 29B). In both tracings, the detergent Triton X-100 was added as a final step to lyse the cells.
Experiments on HEK cells were performed generally as described in Example 6 herein. […]

## COc1cccc([C@@H](C)NCCCc2ccccc2)c1 [MC0100]
1 micromolar MC 0100
  effect of prior modulator on CaSR response to 0.025% Zn Proteinate: increased the response
1 micromolar MC0100 added before Mintrex Zn
  effect of prior modulator on CaSR response to 0.025% Mintrex Zn: responded to 0.025% Mintrex Zn only after the addition of 1 micromolar MC0100
MC0100 at final 1 micromolar
  CaSR response to the modulator itself: very small CaSR response; also recorded: did not itself produce a large response
After addition of 2.5 mM Ca++ (FIG. 37)
  CaSR response to stepwise additions: increased responses
Previous addition of 1 micromolar MC0100
  effect on Mintrex Zn-induced reduction of CaSR response to 5 mM Ca2+: partially restored
